We go through 1 compound from patent US11572590B2, “Methods for evaluating tumor cell spheroids using 3D microfluidic cell culture device” (Dana-Farber Cancer Institute, Inc., priority 2017, dated 2023).

The structures appear in SMILES notation. Like-named read-outs stand apart in the source and are kept apart here.

What is called inhibition is the percentage by which the read-out fell short of the control.

Holding throughout (test): SelectScreen Kinase Profiling, single point inhibition and IC50 for off-target kinases
Assay type in all cases: biochemical

Assay [1] has as its target T1, off-target kinases (Homo sapiens, UniProt Q15835).
T1 sequence (Q15835 1-563): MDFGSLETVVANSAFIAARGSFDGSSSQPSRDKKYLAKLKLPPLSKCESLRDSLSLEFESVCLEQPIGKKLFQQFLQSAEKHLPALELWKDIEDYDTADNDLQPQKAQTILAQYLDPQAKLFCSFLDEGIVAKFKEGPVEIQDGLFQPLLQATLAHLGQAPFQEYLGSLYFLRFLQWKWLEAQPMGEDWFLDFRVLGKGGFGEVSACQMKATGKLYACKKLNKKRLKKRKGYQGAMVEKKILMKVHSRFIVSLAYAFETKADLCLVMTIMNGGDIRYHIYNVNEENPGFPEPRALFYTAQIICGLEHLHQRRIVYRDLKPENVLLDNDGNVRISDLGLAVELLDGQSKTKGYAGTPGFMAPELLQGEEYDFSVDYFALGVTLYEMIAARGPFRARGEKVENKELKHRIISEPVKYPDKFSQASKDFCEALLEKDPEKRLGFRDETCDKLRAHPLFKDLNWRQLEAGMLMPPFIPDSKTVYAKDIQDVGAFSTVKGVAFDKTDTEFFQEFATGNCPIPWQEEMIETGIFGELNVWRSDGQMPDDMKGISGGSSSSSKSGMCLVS
To be noted: GRK1, LanthaScreen Binding. In general terms: TR-FRET usually uses a lanthanide donor and a delayed reading to cut background.

Assay [2] concerns the target off-target kinases (Homo sapiens, UniProt P08581, M1250T). To be noted: MET M1250T, mutant y, ZLYTE, ATP Km app.
Assay [3] concerns the target off-target kinases (Homo sapiens, UniProt P43405). To be noted: SYK, 1000 μM, ATP Km app, ZLYTE.
The target of assay [4] is T2, off-target kinases (Homo sapiens, UniProt Q12866).
T2 sequence (Q12866 21-999): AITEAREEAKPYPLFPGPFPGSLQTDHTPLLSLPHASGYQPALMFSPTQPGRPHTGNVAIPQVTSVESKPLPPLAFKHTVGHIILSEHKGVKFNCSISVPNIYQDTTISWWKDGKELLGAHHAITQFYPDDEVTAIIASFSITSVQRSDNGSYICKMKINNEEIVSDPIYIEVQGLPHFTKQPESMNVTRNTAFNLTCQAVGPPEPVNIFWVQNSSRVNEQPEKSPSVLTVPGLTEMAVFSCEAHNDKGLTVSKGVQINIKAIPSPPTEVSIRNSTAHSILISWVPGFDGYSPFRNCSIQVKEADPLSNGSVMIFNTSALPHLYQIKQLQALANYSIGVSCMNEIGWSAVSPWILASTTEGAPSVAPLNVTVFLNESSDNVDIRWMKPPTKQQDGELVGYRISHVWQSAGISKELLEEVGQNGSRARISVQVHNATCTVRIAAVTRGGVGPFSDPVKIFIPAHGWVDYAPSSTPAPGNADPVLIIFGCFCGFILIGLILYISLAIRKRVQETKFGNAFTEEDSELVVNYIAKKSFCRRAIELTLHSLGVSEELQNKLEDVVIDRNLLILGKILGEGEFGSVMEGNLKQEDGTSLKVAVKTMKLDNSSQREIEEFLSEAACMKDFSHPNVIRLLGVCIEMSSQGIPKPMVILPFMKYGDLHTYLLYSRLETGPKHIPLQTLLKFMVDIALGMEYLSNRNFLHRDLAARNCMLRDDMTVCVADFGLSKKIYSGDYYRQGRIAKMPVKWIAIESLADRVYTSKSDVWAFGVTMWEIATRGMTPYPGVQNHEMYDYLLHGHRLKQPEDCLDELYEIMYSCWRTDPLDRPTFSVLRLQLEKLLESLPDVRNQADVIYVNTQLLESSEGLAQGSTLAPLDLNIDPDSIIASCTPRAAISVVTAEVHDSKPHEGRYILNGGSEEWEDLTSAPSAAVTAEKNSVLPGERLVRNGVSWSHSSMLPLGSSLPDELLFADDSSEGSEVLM
As to conditions: MERTK (cMER), ZLYTE, ATP Km app.

Sequence of off-target kinases (Homo sapiens, UniProt P08581, M1250T) (P08581 25-1390 M1250T): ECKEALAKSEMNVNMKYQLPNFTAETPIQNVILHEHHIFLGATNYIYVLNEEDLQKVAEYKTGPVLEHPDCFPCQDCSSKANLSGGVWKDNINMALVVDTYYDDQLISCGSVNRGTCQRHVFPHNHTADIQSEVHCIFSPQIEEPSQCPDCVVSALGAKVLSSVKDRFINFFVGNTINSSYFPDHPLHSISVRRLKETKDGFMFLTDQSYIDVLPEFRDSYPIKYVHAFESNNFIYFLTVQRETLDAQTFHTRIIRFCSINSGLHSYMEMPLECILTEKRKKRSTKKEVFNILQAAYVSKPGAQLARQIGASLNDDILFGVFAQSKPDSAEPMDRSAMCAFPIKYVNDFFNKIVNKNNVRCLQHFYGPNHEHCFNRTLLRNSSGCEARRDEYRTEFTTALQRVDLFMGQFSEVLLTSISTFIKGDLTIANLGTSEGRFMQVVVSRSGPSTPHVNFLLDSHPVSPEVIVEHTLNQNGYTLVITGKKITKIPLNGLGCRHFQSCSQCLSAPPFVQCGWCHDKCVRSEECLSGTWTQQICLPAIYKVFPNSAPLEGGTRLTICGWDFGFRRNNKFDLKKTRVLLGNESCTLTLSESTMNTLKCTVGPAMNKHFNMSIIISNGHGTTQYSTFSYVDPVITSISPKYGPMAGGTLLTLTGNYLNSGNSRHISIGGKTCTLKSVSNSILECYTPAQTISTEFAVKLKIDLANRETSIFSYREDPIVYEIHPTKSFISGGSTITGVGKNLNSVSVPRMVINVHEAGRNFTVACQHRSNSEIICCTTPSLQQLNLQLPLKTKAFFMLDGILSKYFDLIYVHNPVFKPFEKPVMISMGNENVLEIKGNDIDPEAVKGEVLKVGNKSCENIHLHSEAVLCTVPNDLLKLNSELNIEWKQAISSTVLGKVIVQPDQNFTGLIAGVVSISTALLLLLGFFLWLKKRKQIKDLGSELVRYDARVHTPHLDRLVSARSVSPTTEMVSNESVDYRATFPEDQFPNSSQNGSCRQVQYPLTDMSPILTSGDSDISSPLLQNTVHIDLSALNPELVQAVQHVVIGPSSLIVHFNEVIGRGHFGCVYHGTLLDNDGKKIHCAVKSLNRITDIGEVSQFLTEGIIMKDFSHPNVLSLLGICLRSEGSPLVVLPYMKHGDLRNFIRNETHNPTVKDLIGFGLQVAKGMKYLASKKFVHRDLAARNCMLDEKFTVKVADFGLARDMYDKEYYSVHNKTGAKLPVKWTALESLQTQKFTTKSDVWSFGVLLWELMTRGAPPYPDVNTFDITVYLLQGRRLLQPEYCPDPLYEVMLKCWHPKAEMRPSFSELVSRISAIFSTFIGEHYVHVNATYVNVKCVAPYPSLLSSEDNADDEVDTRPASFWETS

Consider `N#Cc1cc(-c2ncnc(Nc3ccc(N4CCN(C5COC5)CC4)cc3)n2)ccc1OC1CCOCC1` [Compound 1, 5-(4-((4-(4-(oxetan-3-yl)piperazin-1-yl)phenyl)amino)-1,3,5-triazin-2-yl)-2-((tetrahydro-2H-pyran-4-yl)oxy)benzonitrile], for which the inhibition on off-target kinases [1] (read-out: % Inhibition 1) came out at 7%; at off-target kinases [1] (read-out: % Inhibition 2), 2%; on off-target kinases [1] (read-out: % Inhibition Avg) it was 5%; at off-target kinases [2] (read-out: % Inhibition 1), 26%; on off-target kinases [2] (read-out: % Inhibition 2), 34%; at off-target kinases [2] (read-out: % Inhibition Avg), 30%. The figures for the inhibition on off-target kinases [4] (read-out: % Inhibition 1), at off-target kinases [4] (read-out: % Inhibition 2) and at off-target kinases [4] (read-out: % Inhibition Avg) were 27%, 22% and 24%, respectively. Moreover, the inhibition at 1000 µM at off-target kinases [3] (read-out: % Inhibition 1) came to 44%; at off-target kinases [3] (read-out: % Inhibition 2), 49%; at off-target kinases [3] (read-out: % Inhibition Avg), 46%.
